# Key:
# [1] = system: antibodies in sera from SARS patients (sera 1a, 1b, 2, 6, 37, 62, London, SARS-yellow, SARS-green); format: binding, human; set-up: Binding of serum 6 to linear peptides of protein X1 of SARS-CoV Urbani / Binding of serum 37 to linear peptides of protein X1 of SARS-CoV Urbani / Binding of serum 6 to looped/cyclic peptide (PEPSCAN-ELISA) / Binding of serum 37 to looped/cyclic peptide (PEPSCAN-ELISA) / Binding of serum 37 to looped/cyclic peptides of protein X1 of SARS-CoV Urbani / Binding of serum 6 to linear peptides of protein X2 / Binding of serum 37 to linear peptides of protein X2 / Binding of serum 37 to looped/cyclic peptides of protein X2 of SARS-CoV Urbani / Binding of serum 6 to linear peptides of protein M of SARS-CoV Urbani / Binding of serum 37 to linear peptides of protein M of SARS-CoV Urbani / Binding of serum 6 to looped/cyclic peptides of protein M of SARS-CoV Urbani / Binding of serum 37 to looped/cyclic peptides of protein M of SARS-CoV Urbani / Binding of serum 6 to linear peptides of protein X3 of SARS-CoV Urbani / Binding of serum 37 to linear peptides of protein X3 of SARS-CoV Urbani / Binding of serum 37 to looped/cyclic peptides of protein X3 of SARS-CoV Urbani / Binding of serum 6 to linear peptides of protein X4 of SARS-CoV Urbani / Binding of serum 37 to linear peptides of protein X4 of SARS-CoV Urbani / Binding of serum 37 to looped/cyclic peptides of protein X4 of SARS-CoV Urbani / Binding of serum 6 to linear peptides of protein X5 of SARS-CoV Urbani / Binding of serum 37 to linear peptides of protein X5 of SARS-CoV Urbani / Binding of serum 37 to looped/cyclic peptides of protein X5 of SARS-CoV Urbani / Binding of serum 6 to linear peptides of protein N of SARS-CoV Urbani / Binding of serum 37 to linear peptides of protein N of SARS-CoV Urbani / Binding of serum 6 to linear peptide (PEPSCAN-ELISA) / Binding of serum 1a to looped/cyclic peptides of protein N of SARS-CoV Urbani / Binding of serum 1b to looped/cyclic peptides of protein N of SARS-CoV Urbani / Binding of serum 2 to looped/cyclic peptides of protein N of SARS-CoV Urbani / Binding of serum 6 to looped/cyclic peptides of protein N of SARS-CoV Urbani / Binding of serum 37 to looped/cyclic peptides of protein N of SARS-CoV Urbani / Binding of serum 62 to looped/cyclic peptides of protein N of SARS-CoV Urbani / Binding of serum London to looped/cyclic peptides of protein N of SARS-CoV Urbani / Binding of serum SARS-green to looped/cyclic peptides of protein N of SARS-CoV Urbani: unit not given here
# [2] = system: control sera (pooled serum of ten healthy LUMC hospital workers; commercial negative donor pooled serum from the Dutch bloodbank); format: binding, human; set-up: Binding of Control serum LUMC to linear peptides / Binding of Control serum Blood-bank to linear peptides / Binding of Control serum LUMC to looped peptides / Binding of Control Serum Blood-Bank to Looped peptides / Binding of Control serum LUMC to linear peptides of the protein M of SARS-CoV Urbani / Binding of Control serum Blood-bank to linear peptides of the protein M of SARS-CoV Urbani / Binding of Control serum LUMC to looped peptides of the protein M of SARS-CoV Urbani / Binding of Control Serum Blood-Bank to Looped peptides of the protein M of SARS-CoV Urbani: unit not given here
# [3] = system: recombinant human anti-SARS-CoV antibody 03-018; format: binding; set-up: Binding of antibody 03-018 to linear peptides of the N protein of SARS-CoV Urbani / Binding of antibody 03-018 to looped/cyclic peptides of the N protein of SARS-CoV Urbani: unit not given here
# [4] = system: rabbit serum obtained by immunizing a rabbit with the SARS-CoV strain Frankfurt 1; format: binding; set-up: Binding of a rabbit serum to linear peptides / Binding of a rabbit serum to looped peptides / Rabbit serum linear peptides / Rabbit serum looped peptides / Binding of a rabbit serum to linear peptides of protein N of SARS-CoV Urbani (Rabbit serum linear peptides) / Binding of a rabbit serum to looped/cyclic peptides of protein N of SARS-CoV Urbani (Rabbit serum looped peptides): unit not given here
sequence,measurement,setting,value
TKQYNVTQAFGRRGP,Binding of serum 1a to linear peptide (PEPSCAN-ELISA),[1],0.3
same,Binding of serum 1a to looped/cyclic peptides of protein N of SARS-CoV Urbani,[1],0.4
same,Binding of serum 1b to linear peptide (PEPSCAN-ELISA),[1],0.1
same,Binding of serum 1b to looped/cyclic peptides of protein N of SARS-CoV Urbani,[1],0.2
same,Binding of serum 2 to linear peptide (PEPSCAN-ELISA),[1],0.2
same,Binding of serum 2 to looped/cyclic peptides of protein N of SARS-CoV Urbani,[1],0.5
same,Binding of serum 6 to linear peptide (PEPSCAN-ELISA),[1],0.2
same,Binding of serum 6 to looped/cyclic peptides of protein N of SARS-CoV Urbani,[1],0.3
same,Binding of serum 37 to linear peptide (PEPSCAN-ELISA),[1],0.8
same,Binding of serum 37 to looped/cyclic peptides of protein N of SARS-CoV Urbani,[1],0.7
same,Binding of serum 62 to linear peptide (PEPSCAN-ELISA),[1],0.7
same,Binding of serum 62 to looped/cyclic peptides of protein N of SARS-CoV Urbani,[1],0.7
same,Binding of serum London to linear peptide (PEPSCAN-ELISA),[1],0.5
same,Binding of serum London to looped/cyclic peptides of protein N of SARS-CoV Urbani,[1],0.5
same,Binding of serum SARS-green to linear peptide (PEPSCAN-ELISA),[1],0.5
same,Binding of serum SARS-green to looped/cyclic peptides of protein N of SARS-CoV Urbani,[1],0.4
same,Binding of serum SARS-yellow to linear peptide (PEPSCAN-ELISA),[1],0.7
same,Binding of serum SARS-yellow to looped/cyclic peptides of protein N of SARS-CoV Urbani,[1],0.6
same,Binding of Control Serum Blood-Bank to Looped peptides,[2],0.9
same,Binding of Control serum Blood-bank to linear peptides,[2],0.8
same,Binding of Control serum LUMC to linear peptides,[2],0.8
same,Binding of Control serum LUMC to looped peptides,[2],0.9
same,Binding of antibody 03-018 to linear peptides of the N protein of SARS-CoV Urbani,[3],0.1
same,Binding of antibody 03-018 to looped/cyclic peptides of the N protein of SARS-CoV Urbani,[3],0.3
same,Recognition of the peptide by the rabbit serum,[4],recognized
TLLPAADMDDFSRQL,Binding of serum 1a to linear peptides of protein N of SARS-CoV Urbani,[1],0.3
same,Binding of serum 1a to looped/cyclic peptides of protein N of SARS-CoV Urbani,[1],0.4
same,Binding of serum 1b to linear peptides of protein N of SARS-CoV Urbani,[1],0.2
same,Binding of serum 1b to looped/cyclic peptides of protein N of SARS-CoV Urbani,[1],0.2
same,Binding of serum 2 to linear peptides of protein N of SARS-CoV Urbani,[1],0.2
same,Binding of serum 2 to looped/cyclic peptides of protein N of SARS-CoV Urbani,[1],0.5
same,Binding of serum 6 to linear peptides of protein N of SARS-CoV Urbani,[1],0.4
same,Binding of serum 6 to looped/cyclic peptides of protein N of SARS-CoV Urbani,[1],0.1
same,Binding of serum 37 to linear peptides of protein N of SARS-CoV Urbani,[1],1.0
same,Binding of serum 37 to looped/cyclic peptides of protein N of SARS-CoV Urbani,[1],0.4
same,Binding of serum 62 to linear peptides of protein N of SARS-CoV Urbani,[1],0.7
same,Binding of serum 62 to looped/cyclic peptides of protein N of SARS-CoV Urbani,[1],0.1
same,Binding of serum London to linear peptides of protein N of SARS-CoV Urbani,[1],0.6
same,Binding of serum London to looped/cyclic peptides of protein N of SARS-CoV Urbani,[1],0.2
same,Binding of serum SARS-green to linear peptides of protein N of SARS-CoV Urbani,[1],0.7
same,Binding of serum SARS-green to looped/cyclic peptides of protein N of SARS-CoV Urbani,[1],0.0
same,Binding of serum SARS-yellow to linear peptides of protein N of SARS-CoV Urbani,[1],0.7
same,Binding of serum SARS-yellow to looped/cyclic peptides of protein N of SARS-CoV Urbani,[1],0.4
same,Control Serum Blood-Bank Looped peptides,[2],0.5
same,Control serum Blood-bank linear peptides,[2],0.7
same,Control serum LUMC linear peptides,[2],0.8
same,Control serum LUMC looped peptides,[2],0.4
same,Binding of antibody 03-018 to linear peptides of the N protein of SARS-CoV Urbani,[3],0.1
same,Binding of antibody 03-018 to looped/cyclic peptides of the N protein of SARS-CoV Urbani,[3],0.1
same,Binding of a rabbit serum to linear peptides of protein N of SARS-CoV Urbani (Rabbit serum linear peptides),[4],0.1
same,Binding of a rabbit serum to looped/cyclic peptides of protein N of SARS-CoV Urbani (Rabbit serum looped peptides),[4],0.0
